{
  "source": "ChEMBL document CHEMBL3351299",
  "about": "“Structural insights on carbonic anhydrase inhibitory action, isoform selectivity, and potency of sulfonamides and coumarins incorporating arylsulfonylureido groups” (J Med Chem, 2014)",
  "key": {"Carbonic anhydrase 12": {"biological_target": "Carbonic anhydrase 12 (Homo sapiens, UniProt O43570)", "sequence (O43570 whole entry)": "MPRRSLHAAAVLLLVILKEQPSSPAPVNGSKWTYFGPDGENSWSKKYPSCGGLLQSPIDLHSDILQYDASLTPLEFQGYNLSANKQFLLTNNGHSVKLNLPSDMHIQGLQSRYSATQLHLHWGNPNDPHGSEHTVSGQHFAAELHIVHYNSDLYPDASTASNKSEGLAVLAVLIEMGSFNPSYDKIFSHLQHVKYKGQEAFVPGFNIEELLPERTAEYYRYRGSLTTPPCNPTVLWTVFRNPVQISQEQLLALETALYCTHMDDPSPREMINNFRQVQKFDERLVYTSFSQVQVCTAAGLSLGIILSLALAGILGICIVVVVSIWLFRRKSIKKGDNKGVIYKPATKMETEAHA", "assay": "Inhibition of human recombinant carbonic anhydrase 12 preincubated for 15 mins by stopped flow CO2 hydration method"}, "Carbonic anhydrase 1": {"biological_target": "Carbonic anhydrase 1 (Homo sapiens, UniProt P00915)", "sequence (P00915 whole entry)": "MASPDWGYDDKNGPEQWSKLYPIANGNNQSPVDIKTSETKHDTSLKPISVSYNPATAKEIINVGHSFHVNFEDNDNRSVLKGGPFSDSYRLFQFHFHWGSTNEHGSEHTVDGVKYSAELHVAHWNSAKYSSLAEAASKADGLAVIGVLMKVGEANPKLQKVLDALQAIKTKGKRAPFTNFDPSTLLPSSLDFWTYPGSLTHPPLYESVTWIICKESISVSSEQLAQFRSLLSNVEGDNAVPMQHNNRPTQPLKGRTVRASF", "assay": "Inhibition of human recombinant carbonic anhydrase 1 preincubated for 15 mins by stopped flow CO2 hydration method"}, "Carbonic anhydrase 9": {"biological_target": "Carbonic anhydrase 9 (Homo sapiens, UniProt Q16790)"}},
  "note": "pKi: −log10 of the molar value.",
  "data": [
    {"smiles": "NS(=O)(=O)c1ccc(CCNC(=O)NS(=O)(=O)c2ccccc2)cc1", "values": [
      {"measurement": "pKi", "setting": "Carbonic anhydrase 12", "value": 8.23},
      {"measurement": "pKi", "setting": "Carbonic anhydrase 1", "value": 7.67},
      {"measurement": "pKi", "setting": "Carbonic anhydrase 9", "value": 8.02}
    ]},
    {"smiles": "Cc1ccc(S(=O)(=O)NC(=O)NCCc2ccc(S(N)(=O)=O)cc2)cc1", "values": [
      {"measurement": "pKi", "setting": "Carbonic anhydrase 12", "value": 8.22},
      {"measurement": "pKi", "setting": "Carbonic anhydrase 1", "value": 7.17},
      {"measurement": "pKi", "setting": "Carbonic anhydrase 9", "value": 8.04}
    ]},
    {"smiles": "Cc1ccccc1S(=O)(=O)NC(=O)NCCc1ccc(S(N)(=O)=O)cc1", "values": [
      {"measurement": "pKi", "setting": "Carbonic anhydrase 12", "value": 8.19},
      {"measurement": "pKi", "setting": "Carbonic anhydrase 1", "value": 7.19}
    ]},
    {"smiles": "NS(=O)(=O)c1ccc(CCNC(=O)NS(=O)(=O)c2ccc(Cl)cc2)cc1", "values": [
      {"measurement": "pKi", "setting": "Carbonic anhydrase 12", "value": 8.25},
      {"measurement": "pKi", "setting": "Carbonic anhydrase 1", "value": 7.24},
      {"measurement": "pKi", "setting": "Carbonic anhydrase 9", "value": 8.01}
    ]},
    {"smiles": "NS(=O)(=O)c1ccc(CCNC(=O)NS(=O)(=O)c2ccc(F)cc2)cc1", "values": [
      {"measurement": "pKi", "setting": "Carbonic anhydrase 12", "value": 8.17},
      {"measurement": "pKi", "setting": "Carbonic anhydrase 1", "value": 7.08},
      {"measurement": "pKi", "setting": "Carbonic anhydrase 9", "value": 7.16}
    ]},
    {"smiles": "NS(=O)(=O)c1ccc(CCNC(=O)NS(=O)(=O)c2ccccc2Cl)cc1", "values": [
      {"measurement": "pKi", "setting": "Carbonic anhydrase 12", "value": 8.29},
      {"measurement": "pKi", "setting": "Carbonic anhydrase 1", "value": 7.28},
      {"measurement": "pKi", "setting": "Carbonic anhydrase 9", "value": 7.10}
    ]},
    {"smiles": "Cc1cc(=O)oc2cc(NC(=O)NS(=O)(=O)c3ccccc3)ccc12", "values": [
      {"measurement": "pKi", "setting": "Carbonic anhydrase 12", "value": 7.16},
      {"measurement": "pKi", "setting": "Carbonic anhydrase 1", "value": "< 5.00"},
      {"measurement": "pKi", "setting": "Carbonic anhydrase 9", "value": 7.04}
    ]},
    {"smiles": "Cc1ccc(S(=O)(=O)NC(=O)Nc2ccc3c(C)cc(=O)oc3c2)cc1", "values": [
      {"measurement": "pKi", "setting": "Carbonic anhydrase 12", "value": 8.03},
      {"measurement": "pKi", "setting": "Carbonic anhydrase 1", "value": "< 5.00"}
    ]},
    {"smiles": "Cc1ccccc1S(=O)(=O)NC(=O)Nc1ccc2c(C)cc(=O)oc2c1", "values": [
      {"measurement": "pKi", "setting": "Carbonic anhydrase 12", "value": 8.05},
      {"measurement": "pKi", "setting": "Carbonic anhydrase 1", "value": 5.30}
    ]},
    {"smiles": "Cc1cc(=O)oc2cc(NC(=O)NS(=O)(=O)c3ccc(Cl)cc3)ccc12", "values": [
      {"measurement": "pKi", "setting": "Carbonic anhydrase 1", "value": 5.24}
    ]},
    {"smiles": "Cc1cc(=O)oc2cc(NC(=O)NS(=O)(=O)c3ccc(F)cc3)ccc12", "values": [
      {"measurement": "pKi", "setting": "Carbonic anhydrase 12", "value": 8.11},
      {"measurement": "pKi", "setting": "Carbonic anhydrase 1", "value": "< 5.00"},
      {"measurement": "pKi", "setting": "Carbonic anhydrase 9", "value": 7.64}
    ]},
    {"smiles": "Cc1cc(=O)oc2cc(NC(=O)NS(=O)(=O)c3ccccc3Cl)ccc12", "values": [
      {"measurement": "pKi", "setting": "Carbonic anhydrase 12", "value": 8.12},
      {"measurement": "pKi", "setting": "Carbonic anhydrase 1", "value": 5.62},
      {"measurement": "pKi", "setting": "Carbonic anhydrase 9", "value": 7.06}
    ]}
  ]
}
